Experimental data: patent publication US20220411419A1, “SMALL MOLECULE MODULATORS OF MHC-I” (RetroVirox, Inc., priority 2018, published 2022)
Read-outs that look alike come from different tables or passages of the source.

How the values were obtained:
in vitro = conditions: human, uninfected SupT1 cells
[1] = test system: MHC-I surface expression in uninfected SupT1 cells; assay: Increase of MHC-I surface expression in uninfected SupT1 cells (mean-MHC-I EC50, FIG. 6A); type: cell-based; conditions: Homo sapiens, SUP-T1, 24 h with compound, read-out: EC50 for MHC-I increased surface expression
Procedure: In some instances, the effect of small molecules in modulation of surface MHC-I was monitored in uninfected (rather than HIV-infected) Sup-T1 cells (FIG. 6A). In these experiments uninfected SupT1 cells were incubated with the compounds for 24 h and then the increase in MHC-I surface expression was monitored by staining cells with the biotinylated HLA-A2/28 antibody (One Lambda, clone BIH0037), washed and then incubated with streptavidin conjugated with APC (Streptavidin APC, EBiosciences, 17-4317) to reveal the anti-HLA-A2 bound antibody. After washing the cells again they were fixed with 0.5% paraformaldehyde and submitted to flow cytometry to determine the levels of MHC-I surface expression (APC fluorescence) in live cells (as estimated by FS/SS in these cells). […] From these assays “mean-MHC-I” EC50 values were generated to indicate the concentration of compound that augments the mean surface levels of MHC-I to 50% of the highest levels accomplished by the compound, as compared to cells treated with vehicle alone. […] Therefore, both assays: inhibition of MHC-I downmodulation in HIV infected SupT1 cells, or increase in surface MHC-I in uninfected SupT1 cells, were indistinctively used to monitor the potency of the compounds to modulate surface expression of MHC-I in SupT1 cells.
Table 7 show the activity of selected compounds utilizing the assay in which the increase of MHC-I surface expression in uninfected SupT1 cells was evaluated, as shown in FIG. 6A. The EC50 for MHC-I increased surface expression was determined using the methods described in Example 2 and illustrated in FIG. 6A.

[2] = test system: surface MHC-I in uninfected SupT1 cells (GFP-negative); assay: Surface MHC-I in GFP-negative (uninfected) SupT1 cells of cultures treated with HIV-1 (FIG. 4); type: cell-based; conditions: dose-dependent
Procedure: FIG. 4 represents the levels of expression of surface MHC-I in uninfected SupT1 cells (GFP-negative) incubated with vehicle alone (0.1% DMSO) or with compounds #40, #53, #54, #56 or #100 at different concentrations. Values are shown as the percentage of the MHC-I expression observed in cells treated with 0.1% DMSO alone. All samples were incubated with HIV-1 reporter virus (NL4.3-GFP) except those shown as ΔNef, which are shown for reference and were treated with nef-defective virus.
To determine whether the inhibitors of MHC-I downmodulation are specific for HIV infection a study to determine whether the compounds also interfere with expression of MHC-I in uninfected cells was undertaken. The effect of the same compounds was evaluated in SupT-1 cells treated with HIV-1 as shown before, but this time the levels of expression of MHC-I were obtained in GFP-negative cells (FIG. 4). […] The increase was dose-dependent and compounds elevated MHC-I levels by as much as 70% (as compared to cells treated with vehicle alone).

[3] = test system: downmodulation of MHC-I molecules expressed on the surface of HIV infected SupT1 cells; assay: cells
uninfected SupT1 cells = assay: Compound-induced toxicity, XTT cell viability assay; conditions: read-out: CC50 (concentration reducing cell viability by 50%), XTT method, 48 h, Tables 3 and 4
[4] = test system: downmodulation of MHC-I molecules expressed on the surface of HIV infected SupT1 cells; conditions: for EC50: read-out: EC50 for inhibition of MHC-I downmodulation utilizing the R1 parameter, SupT1 cells infected with HIV-1, compounds added 20 h after infection, 24 h incubation
[5] = Human immunodeficiency virus 1, SUP-T1, read-out: EC50 for inhibition of MHC-I downmodulation utilizing the R1 parameter
[6] = Human immunodeficiency virus 1, SUP-T1, 24 h, read-out: EC50 for R1 (inhibition of MHC-I downmodulation)

Structure (SMILES) | CC50 (in vitro) | CC50 at 48 h (in vitro) | EC50 [1] | surface levels of MHC-I in uninfected cells [2] | EC50 [3, 5] | further results
CCN(C(=O)COc1cccc2c1OC(C)(C)C2)c1nc2c(s1)CCCC2 [Compound 54, 2-((2,2-Dimethyl-2,3-dihydrobenzofuran-7-yl)oxy)-N-ethyl-N-(4,5,6,7-tetrahydrobenzo[d]thiazol-2-yl)acetamide] | > 125 µM | > 125 µM | 9 nM | increased the surface levels of MHC-I in uninfected cells | 8 nM | 
CC1(C)Cc2cccc(CCC(=O)Nc3nc4ccccc4s3)c2O1 [Compound 108, N-(Benzo[d]thiazol-2-yl)-3-(2,2-dimethyl-2,3-dihydrobenzofuran-7-yl) propanamide] |  |  |  |  |  | CC50 (uninfected SupT1 cells): > 100 µM; EC50 [4]: 1370 nM
C=CCN(C(=O)COc1cccc2c1OC(C)(C)C2)c1nc2c(s1)CCCC2 [Compound 56, N-Allyl-2-((2,2-dimethyl-2,3-dihydrobenzofuran-7-yl)oxy)-N-(4,5,6,7-tetrahydrobenzo[d]thiazol-2-yl)acetamide] | > 125 µM | > 125 µM | 6 nM | increased the surface levels of MHC-I in uninfected cells | 1 nM | EC50 [3, 6]: ~1 nM
Cc1ccccc1CCC(=O)N(C)c1nc2c(s1)CCCC2 [Compound 109, N-Methyl-N-(4,5,6,7-tetrahydrobenzo[d]thiazol-2-yl)-3-(o-tolyl) propanamide] |  |  |  |  |  | CC50 (uninfected SupT1 cells): > 125 µM; EC50 [4]: 2100 nM
Cc1ccc(CN(C(=O)COc2cccc3c2OC(C)(C)C3)c2nc3c(s2)CCCC3)nc1 [Compound 40, 2-((2,2-Dimethyl-2,3-dihydrobenzofuran-7-yl)oxy)-N-((5-methylpyridin-2-yl)methyl)-N-(4,5,6,7-tetrahydrobenzo[d]thiazol-2-yl)acetamide] |  | > 100 µM |  | increased the surface levels of MHC-I in uninfected cells | 8 nM | viability of the cell culture (estimated by FS/SS) ([4]; 100 nM compound, FIG. 2G): nor the viability of the cell culture (estimated by FS/SS) was affected; R4 values lower than in cells treated with DMSO only ([4]; 100 nM compound, SupT1 cells infected with wild-type virus): approximately 10 fold
CN(C(=O)COc1cccc2c1OC(C)(C)C2)c1nc2c(s1)CCCC2 [Compound 53, 2-((2,2-Dimethyl-2,3-dihydrobenzofuran-7-yl)oxy)-N-methyl-N-(4,5,6,7-tetrahydrobenzo[d]thiazol-2-yl)acetamide] | > 125 µM | > 125 µM | 12 nM | increased the surface levels of MHC-I in uninfected cells | 3 nM | 
CC1(C)Cc2cccc(OCC(=O)N(CC(F)(F)F)c3nc4c(s3)CCCC4)c2O1 [Compound 164, 2-((2,2-Dimethyl-2,3-dihydrobenzofuran-7-yl)oxy)-N-(4,5,6,7-tetrahydrobenzo[d]thiazol-2-yl)-N-(2,2,2-trifluoroethyl)acetamide] | > 125 µM |  | 26 nM |  |  | 
CC1(C)Cc2cccc(OCC(=O)Nc3nc4c(C#N)cccc4s3)c2O1 [Compound 100, N-(4-cyanobenzo[d]thiazol-2-yl)-2-((2,2-dimethyl-2,3-dihydrobenzofuran-7-yl)oxy)acetamide] |  | 0.1 µM |  | increased the surface levels of MHC-I in uninfected cells | 70 nM | EC50 [3, 6]: 70 nM
Cc1nc(NC(=O)COc2cccc3c2OC(C)(C)C3)ccc1C1CC1 [Compound 167, N-(5-Cyclopropyl-6-methylpyridin-2-yl)-2-((2,2-dimethyl-2,3-dihydrobenzofuran-7-yl)oxy)acetamide] | > 125 µM |  | 470 nM |  |  | 
CC1(C)Cc2cccc(OC(Cc3ccccc3)C(=O)Nc3nc4c(s3)CCCC4)c2O1 (racemic) [Compound 171, (±)-2-((2,2-Dimethyl-2,3-dihydrobenzofuran-7-yl)oxy)-3-phenyl-N-(4,5,6,7-tetrahydrobenzo[d]thiazol-2-yl)propanamide] | > 125 µM |  | 6200 nM |  |  | 
Cc1cccnc1CN(C(=O)COc1cccc2c1OC(C)(C)C2)c1ccc(C2CC2)c(C)n1 [Compound 170, N-(5-Cyclopropyl-6-methylpyridin-2-yl)-2-((2,2-dimethyl-2,3-dihydrobenzofuran-7-yl)oxy)-N-((3-methylpyridin-2-yl)methyl)acetamide] | > 125 µM |  | 1000 nM |  |  | 
Cc1nc(NC(=O)C(Cc2ccccc2)Oc2cccc3c2OC(C)(C)C3)ccc1C1CC1 (racemic) [Compound 172, (±)-N-(5-Cyclopropyl-6-methylpyridin-2-yl)-2-((2,2-dimethyl-2,3-dihydrobenzofuran-7-yl)oxy)-3-phenylpropanamide] | > 125 µM |  | 8400 nM |  |  | 
CC1(C)Cc2cccc(OCC(=O)N(CC(F)(F)F)c3nc4c(s3)COCC4)c2O1 [Compound 166, N-(6,7-Dihydro-4H-pyrano[4,3-d]thiazol-2-yl)-2-((2,2-dimethyl-2,3-dihydrobenzofuran-7-yl)oxy)-N-(2,2,2-trifluoroethyl)acetamide] | > 125 µM |  | 200 nM |  |  | 
